Results as given in US11591341B2 (ALIGOS THERAPEUTICS, INC., priority 2019, dated 2023).

The compounds below were run on HBV (assay: HBV-DNA Antiviral Assay Using HepG2.117 Cells (intracellular HBV DNA by qPCR)). Details: Hepatitis B virus, HepG2.117.
Type: cell-based, hepatitis B virus (genotype D)
Method in brief: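 Endpoint: qPCR copy number of intracellular HBV DNA after 3-day compound exposure, with inhibition set relative to the 2% DMSO control. The cells were doxycycline-free HepG2.117 carrying a Tet-off genotype D genome, dosed at nine 4-fold dilutions. A duplicate plate gave ATP-based viability (CC50).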

SMILES | EC50 [nM]
O=C(NCc1c(F)cccc1F)c1c2n(c(=O)n1-c1ccc(OC3CC3)cc1)CCN(C(=O)c1ccc(Br)c(Cl)c1)C2 [Example 306, 7-(4-bromo-3-chloro-benzoyl)-2-[4-(cyclopropoxy)phenyl]-N-[(2,6-difluorophenyl)methyl]-3-oxo-6,8-dihydro-5H-imidazo[1,5-a]pyrazine-1-carboxamide] | 100 to 500
CC(C)Oc1ccc(-n2c(-c3ncc(Cc4ccccc4)s3)c3n(c2=O)CCN(C(=O)c2ccc(Br)c(Cl)c2)C3)cc1 [Example 325, 1-(5-benzylthiazol-2-yl)-7-(4-bromo-3-chlorobenzoyl)-2-(4-isopropoxyphenyl)-5,6,7,8-tetrahydroimidazo[1,5-a]pyrazin-3(2H)-one] | > 5000
C[C@H](Oc1ccc(-n2c(C(=O)NCc3ccccc3)c3n(c2=O)CCN(C(=O)c2ccc(Br)c(Cl)c2)C3)cc1)C(F)(F)F (stereo in doubt) [Example 283, N-benzyl-7-(4-bromo-3-chloro-benozyl)-3-oxo-2-[4-[rac-(1S)-2,2,2-trifluoro-1-methyl-ethoxy]phenyl]-6,8-dihydro-5H-imidazo[1,5-a]pyrazine-1-carboxamide] | 500 to 5000
CC(C)Oc1ccc(-n2c(C(=O)NCc3ccccc3)c3n(c2=O)CCN(C(=O)/C=C/c2ccc(Cl)c(Cl)c2)C3)cc1 [Example 242, N-benzyl-7-[(E)-3-(3,4-dichlorophenyl)prop-2-enoyl]-2-(4-isopropoxyphenyl)-3-oxo-6,8-dihydro-5H-imidazo[1,5-a]pyrazine-1-carboxamide] | > 5000
O=C(c1ccc(Br)c(Cl)c1)N1CCn2c(c3n(c2=O)C[C@@H](O)CN(Cc2ccccc2)C3=O)C1 (stereo in doubt) [Example 175, rac-(11S)-13-benzyl-4-(4-bromo-3-chloro-benzoyl)-11-hydroxy-4,7,9,13-tetrazatricyclo[7.5.0.0^2,7]tetradec-1-ene-8.14-dione] | 500 to 5000
Cc1ccc(-n2c(C(=O)NCc3ccccc3)c3n(c2=O)CCN(C(=O)c2ccc(Cl)c(Cl)c2)C3)cc1 [Example 122, N-benzyl-7-(3,4-dichlorobenzoyl)-3-oxo-2-(p-tolyl)-6,8-dihydro-5H-imidazo[1,5-a]pyrazine-1-carboxamide] | 500 to 5000
NC(=O)COc1ccc(-n2c(C(=O)NCc3ccccc3)c3n(c2=O)CCN(C(=O)c2ccc(Br)c(Cl)c2)C3)cc1 [Example 285, 2-[4-(2-amino-2-oxo-ethoxy)phenyl]-N-benzyl-7-(4-bromo-3-chloro-benzoyl)-3-oxo-6,8-dihydro-5H-imidazo[1,5-a]pyrazine-1-carboxamide] | 500 to 5000
CC(C)(Oc1ccc(CNC(=O)c2c3n(c(=O)n2-c2ccc(OCC(F)(F)F)cc2)CCN(C(=O)c2ccc(Br)c(Cl)c2)C3)c(F)c1)C(N)=O [Example 428, N-[[4-(2-amino-1,1-dimethyl-2-oxo-ethoxy)-2-fluoro-phenyl]methyl]-7-(4-bromo-3-chloro-benzoyl)-3-oxo-2-[4-(2,2,2-trifluoroethoxy)phenyl]-6,8-dihydro-5H-imidazo[1,5-a]pyrazine-1-carboxamide] | 100 to 500
O=C(NCc1cccc2nccnc12)c1c2n(c(=O)n1-c1ccc(OCC(F)(F)F)cc1)CCN(C(=O)c1ccc(Br)c(Cl)c1)C2 [Example 277, 7-(4-bromo-3-chloro-benzoyl)-3-oxo-N-(quinoxalin-5-ylmethyl)-2-[4-(2,22,- trifluoroethoxy)phenyl]-6,8-dihydro-5H-imidazo[1,5-a]pyrazine-1-carboxamide] | < 100
O=C(NCc1ccccc1)c1c2n(c(=O)n1-c1ccccc1)CCN(C(=O)c1ccc(Cl)c(Cl)c1)C2 [Example 34, N-benzyl-7-(3,4-dichlorobenzoyl)-3-oxo-2-phenyl-6,8-dihydro-5H-imidazo[1,5-a]pyrazine-1-carboxamide] | 500 to 5000
CC(C)(C)Oc1ccc(-n2c(C(=O)NCc3ccccc3)c3n(c2=O)CCN(C(=O)c2ccc(Br)c(Cl)c2)C3)cc1 [Example 396, N-benzyl-7-(4-bromo-3-chloro-benzoyl)-2-(4-tert-butoxyphenyl)-3-oxo-6,8-dihydro-5H-imidazo[1,5-a]pyrazine-1-carboxamide] | 100 to 500
C[C@H]1Cn2c(c(C(=O)NCc3ccccc3-n3cccn3)n(-c3ccc(OC4CC4)cc3)c2=O)CN1C(=O)c1ccc(Br)c(Cl)c1 (stereo in doubt) [Example 438, rac-(6S)-7-(4-bromo-3-chloro-benzoyl)-2-[4-(cyclopropoxy)phenyl]-6-methyl-3-oxo-N-[(2-pyrazol-1-ylphenyl)methyl]-6,8-dihydro-5H-imidazo[1,5-a]pyrazine-1-carboxamide] | < 100
O=C(NCc1ccccc1-c1ncc[nH]1)c1c2n(c(=O)n1-c1ccc(OCC(F)(F)F)cc1)CCN(C(=O)c1ccc(Br)c(Cl)c1)C2 [Example 425, 7-(4-bromo-3-chloro-benzoyl)-N-[[2-(1H-imidazol-2-yl)phenyl]methyl]-3-oxo-2-[4-(2,2,2-trifluoroethoxy)phenyl]-6,8-dihydro-5H-imidazo[1,5-a]pyrazine-1-carboxamide] | < 100
COc1ccc([C@@H](C)NC(=O)c2c3n(c(=O)n2-c2ccc(OC4CC4)cc2)C[C@H](C)N(C(=O)c2ccc(Br)c(Cl)c2)C3)cc1 (racemic) [Example 450, (6SR)-7-(4-bromo-3-chloro-benzoyl)-2-[4-(cyclopropoxy)phenyl]-N-[(1R)-1-(4-methoxyphenyl)ethyl]-6-methyl-3-oxo-6,8-dihydro-5H-imidazo[1,5-a]pyrazine-1-carobxamide] | < 100
O=C(NCc1cccc2[nH]cnc12)c1c2n(c(=O)n1-c1ccc(OCC(F)(F)F)cc1)CCN(C(=O)c1ccc(Br)c(Cl)c1)C2 [Example 368, N-(1H-benzimidazol-4-ylmethyl)-7-(4-bromo-3-chloro-benzoyl)-3-oxo-2-[4-(2,2,2-trifluoroethoxy)phenyl]-6,8-dihydro-5H-imidazo[1,5-a]pyrazine-1-carboxamide] | 500 to 5000
COc1ccc(-n2c(C(=O)NCc3ccc(OC(F)F)cc3)c3n(c2=O)CCN(C(=O)c2ccc(Br)c(Cl)c2)C3)cc1 [Example 148, 7-(4-bromo-3-chloro-benzoyl)-N-[[4-(difluoromethoxy)phenyl]methyl]-2-(4-methoxyphenyl)-3-oxo-6,8-dihydro-5H-imidazo[1,5-a]pyrazine-1-carboxamide] | 100 to 500
C[C@@H](NC(=O)c1c2n(c(=O)n1-c1ccc(OC3CC3)cc1)CCN(C(=O)c1ccc(Br)c(Cl)c1)C2)c1ccc(OC(F)F)cc1F (racemic) [Example 313, 7-(4-bromo-3-chloro-benzoyl)-2-[4-(cyclopropoxy)phenyl]-3-oxo-N-[rac-(1R)-1-[4-(difluoromethoxy)-2-fluoro-phenyl]ethyl]-6,8-dihydro-5H-imidazo[1,5-a]pyrazine-1-carboxamide] | 100 to 500
O=C(NCc1cccc2[nH]cnc12)c1c2n(c(=O)n1-c1ccc(OC3CC3)cc1)CCN(C(=O)c1ccc(Br)c(Cl)c1)C2 [Example 367, N-(1H-benzoimidazol-4-ylmethyl)-7-(4-bromo-3-chloro-benzoyl)-2-[4-(cyclopropoxy)phenyl]-3-oxo-6,8-dihydro-5H-imidazo[1,5-a]pyrazine-1-carboxamide] | 100 to 500
COc1ccc(CNC(=O)c2c3n(c(=O)n2-c2ccc(OC(C)C)cc2)CCN(C(=O)c2ccc(Br)c(Cl)c2)C3)cc1 [Example 185, 7-(4-bromo-3-chloro-benzoyl)-2-(4-isopropoxyphenyl)-N-[(4-methoxyphenyl)methyl]-3-oxo-6,8-dihydro-5H-imidazo[1,5-a]pyrazine-1-carboxamide] | 100 to 500
